Results: patent US20250034168A1, “NITROGEN-CONTAINING HETEROCYCLIC DERIVATIVE PARP INHIBITOR AND USE THEREOF” (XIZANG HAISCO PHARMACEUTICAL CO., LTD., priority 2021, published 2025)

Assays:
[1] = target: PARP-1 enzyme (Homo sapiens (Human), UniProt P09874); assay: PARP-1 enzyme activity test; assay type: biochemical
Procedure: PARP-1 chemical […] detection kit was purchased from BPS Bioscience. The histone solution in the kit was diluted 5× with 1×PBS, and 25 μL of the diluted histone solution was added to a microwell plate and incubated overnight at 4° C. After the incubation, the plate was washed three times with PBST (0.05% Tween-20). 100 μL of the blocking solution was added to the microwell plate and incubated at 25° C. for 90 minutes. After the incubation, the plate was washed three times with PBST. 2.5 μL of compounds at different concentrations diluted in test buffer and 12.5 μL of substrate mixed solution (1.25 μL 10×PARP test buffer; 1.25 μL 10×PARP test mixed solution; 2.5 μL Activated DNA, 7.5 μL double-distilled water) were added to the microwell plate. The PARP-1 enzyme was diluted to 2 ng/μL, 10 μL of the diluent was added to the microwell plate, and the reaction system was incubated at 25° C. for 60 minutes.
After the incubation, the plate was washed three times with PBST. Streptavidin-HRP was diluted 50× with a blocking solution, and 25 μL of the diluent was added to the microwell plate and incubated at 25° C. for 30 minutes. After the incubation, the plate was washed three times with PBST. ELISA ECL substrate A and substrate B were mixed at a ratio of 1:1 (v/v), 50 μL of the mixture was added to the microwell plate, and the chemiluminescence value was read.
The inhibition rate was calculated according to formula 1, where RLUsample was the readout of the compound well, RLUmax was the readout of the solvent control well, and RLUmin was the readout of the control well without the PARP-1 enzyme. Curve fitting was performed by four parameters (log(inhibitor) vs. response—Variable slope) using GraphPad Prism software, and the IC50 value was calculated.

[2] = tested on: MDA-MB-436 cells; assay: MDA-MB-436 cell activity test; assay type: cell-based; conditions: Homo sapiens; for IC50: MDA-MB-436, 168 h, 7 days incubation, CellTiter-Glo; for inhibition at 10 µM: MDA-MB-436 cells, read-out: Max inh. % 10 μM
Procedure: Breast tumor cells MDA-MB-436 were purchased from ATCC, the culture medium was Leibovitz's L-15+10% FBS, and the cells were cultured in a CO2-free incubator at 37° C. On day 1, the cells in the exponential growth phase were collected, and the cell suspension was adjusted to 4000 cells/135 μL with the culture medium. 135 μL of the cell suspension was added to each well of a 96-well cell culture plate and incubated overnight. On day 2, compounds at different concentrations were added, and the plate was placed in the incubator and incubated for 7 days. After the incubation was completed, according to operation instructions for a CellTiter-Glo kit (Promega, G7573), 75 μL of CTG solution, which was already pre-melted and equilibrated to room temperature, was added to each well, and the mixture was uniformly mixed for 2 min using a microplate shaker. The plate was placed at room temperature for 10 min, and then […] were measured using an Envision2104 plate reader (PerkinElmer). The inhibition rate was calculated using formula (1), where RLUcompound was the readout of the drug treated group, RLUcontrol was the average value of the vehicle control group, and RLUblank was the average value of the cell-free well. The IC50 value was calculated using GraphPad Prism software.

Sequence of PARP-1 enzyme (P09874 whole entry): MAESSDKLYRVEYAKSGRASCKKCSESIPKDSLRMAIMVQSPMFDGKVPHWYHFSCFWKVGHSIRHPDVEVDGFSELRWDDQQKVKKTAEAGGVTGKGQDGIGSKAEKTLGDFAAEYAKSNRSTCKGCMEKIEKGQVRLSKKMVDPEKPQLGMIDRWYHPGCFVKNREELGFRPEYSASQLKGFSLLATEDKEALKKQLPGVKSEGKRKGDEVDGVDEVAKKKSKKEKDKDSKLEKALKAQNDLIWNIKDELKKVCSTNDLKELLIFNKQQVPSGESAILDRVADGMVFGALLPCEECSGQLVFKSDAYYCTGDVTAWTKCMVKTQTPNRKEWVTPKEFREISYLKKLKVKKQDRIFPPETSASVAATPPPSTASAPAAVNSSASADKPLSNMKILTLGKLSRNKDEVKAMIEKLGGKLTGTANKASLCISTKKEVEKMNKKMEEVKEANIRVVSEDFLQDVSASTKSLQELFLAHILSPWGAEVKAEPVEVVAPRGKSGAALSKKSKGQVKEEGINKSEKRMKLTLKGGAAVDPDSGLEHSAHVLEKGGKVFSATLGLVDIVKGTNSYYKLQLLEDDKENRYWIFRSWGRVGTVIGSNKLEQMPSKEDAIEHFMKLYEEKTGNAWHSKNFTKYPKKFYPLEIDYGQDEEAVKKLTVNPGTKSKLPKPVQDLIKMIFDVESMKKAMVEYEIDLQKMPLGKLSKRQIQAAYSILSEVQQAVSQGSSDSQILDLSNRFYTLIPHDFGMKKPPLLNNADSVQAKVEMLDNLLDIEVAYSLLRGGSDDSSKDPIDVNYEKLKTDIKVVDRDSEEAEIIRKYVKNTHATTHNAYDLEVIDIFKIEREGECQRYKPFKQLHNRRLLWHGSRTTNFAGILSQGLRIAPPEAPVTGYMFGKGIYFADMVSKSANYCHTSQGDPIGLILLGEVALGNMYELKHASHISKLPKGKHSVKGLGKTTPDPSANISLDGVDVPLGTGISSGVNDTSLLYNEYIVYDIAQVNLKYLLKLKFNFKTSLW

| SMILES | IC50 [1] [nM] | IC50 [2] [nM] | inhibition at 10 µM [2] [%] |
| --- | --- | --- | --- |
| CCc1cc2ncc(CN3CC4CN(c5ccc(C(=O)NC)nc5)CC4C3)cc2[nH]c1=O (stereo not drawn) [Compound 1, 5-(5-((7-ethyl-6-oxo-5,6-dihydro-1,5-naphthyridin-3-yl)methyl)hexahydropyrrolo [3,4-c]pyrrol-2(1H)-yl)-N-methylpicolinamide] | 0.8 | – | – |
| CCc1cc2ncc(CN3C4CCC3CN(c3ccc(C(=O)NC)nc3)C4)cc2[nH]c1=O [Compound 3, 5-(8-((7-ethyl-6-oxo-5,6-dihydro-1,5-naphthyridin-3-yl)methyl)-3,8-diazabicyclo[3.2.1]octan-3-yl)-N-methylpicolinamide] | 1.6 | – | – |
| CCc1cc2ncc(CN3CC(Nc4ccc(C(=O)NC)nc4)C3)cc2[nH]c1=O [Compound 6, 5-((1-((7-ethyl-6-oxo-5,6-dihydro-1,5-naphthyridin-3-yl)methyl)azetidin-3-yl)amino)-N-methylpicolinamide] | 0.51 | – | – |
| CCc1cc2ncc(CN3CC4(C3)CN(c3ccc(C(=O)NC)nc3)C4)cc2[nH]c1=O [Compound 8, 5-(6-((7-ethyl-6-oxo-5,6-dihydro-1,5-naphthyridin-3-yl)methyl)-2,6-diazaspiro[3.3]heptan-2-yl)-N-methylpicolinamide] | 0.78 | – | – |
| CCc1cc2ncc(CN3CC[C@@H](Nc4ccc(C(=O)NC)nc4)C3)cc2[nH]c1=O [Compound 19, (R)-5-((1-((7-ethyl-6-oxo-5,6-dihydro-1,5-naphthyridin-3-yl)methyl)pyrrolidin-3-yl)amino)-N-methylpicolinamide] | 0.36 | – | – |
| CCc1cc2ncc(CN3CC=C(c4ccc(C(=O)Nc5cnn(C)c5)nc4)CC3)cc2[nH]c1=O [Compound 20, 1′-((7-ethyl-6-oxo-5,6-dihydro-1,5-naphthyridin-3-yl)methyl)-N-(1-methyl-1H-pyrazol-4-yl)-1′,2′,3′,6′-tetrahydro-[3,4′-bipyridine]-6-carboxamide] | 0.26 | 0.7 | 91.8 |
| CCc1cc2ncc(CN3CC=C(c4ccc(NC(=O)C5CC5)nc4)CC3)cc2[nH]c1=O [Compound 22, N-(1′-((7-ethyl-6-oxo-5,6-dihydro-1,5-naphthyridin-3-yl)methyl)-1′,2′,3′,6′-tetrahydro-[3,4′-bipyridin]-6-yl)cyclopropanecarboxamide] | 0.31 | 2.2 | 89.1 |
| CCc1cc2ncc(CN3CC=C(c4ccc(C(=O)NC5CC5)nc4)CC3)cc2[nH]c1=O [Compound 25, N-cyclopropyl-1′-((7-ethyl-6-oxo-5,6-dihydro-1,5-naphthyridin-3-yl)methyl)-1′,2′,3′,6′-tetrahydro-[3,4′-bipyridine]-6-carboxamide] | 0.36 | – | – |
| CCc1cc2ncc(CN3CC=C(c4ccc(C(=O)N[C@@H]5C[C@@H]5F)nc4)CC3)cc2[nH]c1=O [Compound 26, 1′-((7-ethyl-6-oxo-5,6-dihydro-1,5-naphthyridin-3-yl)methyl)-N-((1R,2S)-2-fluorocyclopropyl)-1′,2′,3′,6′-tetrahydro-[3,4′-bipyridine]-6-carboxamide] | 0.41 | 1 | 90.9 |
| CCc1cc2ncc(CN3CC=C(c4cn5cc(C)nc5cn4)CC3)cc2[nH]c1=O [Compound 27, 3-ethyl-7-((4-(2-methylimidazo[1,2-a]pyrazin-6-yl)-3,6-dihydropyridin-1(2H)-yl)methyl)-1,5-naphthyridin-2(1H)-one] | 0.41 | – | – |
| CCc1cc2ncc(C=C3CCN(c4ccc(C(=O)NC)nc4)CC3)cc2[nH]c1=O [Compound 28, 5-(4-((7-ethyl-6-oxo-5,6-dihydro-1,5-naphthyridin-3-yl)methylene)piperidin-1-yl)-N-methylpicolinamide] | 0.33 | – | – |
| CCc1cc2ncc(CC3CCN(c4ccc(C(=O)NC)nc4)CC3)cc2[nH]c1=O [Compound 29, 5-(4-((7-ethyl-6-oxo-5,6-dihydro-1,5-naphthyridin-3-yl)methyl)piperidin-1-yl)-N-methylpicolinamide] | 0.95 | – | – |
| CCc1cc2ncc(CN3CC=C(c4ccc(NC(=O)c5cnn(C)c5)nc4)CC3)cc2[nH]c1=O [Compound 30, N-(1′-((7-ethyl-6-oxo-5,6-dihydro-1,5-naphthyridin-3-yl)methyl)-1′,2′,3′,6′-tetrahydro-[3,4′-bipyridin]-6-yl)-1-methyl-1H-pyrazole-4-carboxamide] | 0.26 | 0.7 | 91.8 |
| CCc1cc2ncc(C=C3CCN(c4ccc(C(=O)Nc5cnn(C)c5)nc4)CC3)cc2[nH]c1=O [Compound 32, 5-(4-((7-ethyl-6-oxo-5,6-dihydro-1,5-naphthyridin-3-yl)methylene)piperidin-1-yl)-N-(1-methyl-1H-pyrazol-4-yl)picolinamide] | 0.19 | 13.8 | 99.1 |
| CCc1cc2ncc(CN3CC=C(c4cn5cc(C(F)(F)F)nc5cn4)CC3)cc2[nH]c1=O [Compound 33, 3-ethyl-7-((4-(2-(trifluoromethyl)imidazo[1,2-a]pyrazin-6-yl)-3,6-dihydropyridin-1(2H)-yl)methyl)-1,5-naphthyridin-2(1H)-one] | 0.71 | 1.9 | 77.6 |
